The source made the active and inactive calls. The calls are words filed in the database; no cut-off is given here.
Key:
[1] = biological target: T1, Histone deacetylase 7 (Homo sapiens, UniProt Q8WUI4); test: Inhibition of HDAC7 (unknown origin) preincubated for 10 mins followed by substrate addition by fluorescence based assay
T1 sequence (Q8WUI4 whole entry): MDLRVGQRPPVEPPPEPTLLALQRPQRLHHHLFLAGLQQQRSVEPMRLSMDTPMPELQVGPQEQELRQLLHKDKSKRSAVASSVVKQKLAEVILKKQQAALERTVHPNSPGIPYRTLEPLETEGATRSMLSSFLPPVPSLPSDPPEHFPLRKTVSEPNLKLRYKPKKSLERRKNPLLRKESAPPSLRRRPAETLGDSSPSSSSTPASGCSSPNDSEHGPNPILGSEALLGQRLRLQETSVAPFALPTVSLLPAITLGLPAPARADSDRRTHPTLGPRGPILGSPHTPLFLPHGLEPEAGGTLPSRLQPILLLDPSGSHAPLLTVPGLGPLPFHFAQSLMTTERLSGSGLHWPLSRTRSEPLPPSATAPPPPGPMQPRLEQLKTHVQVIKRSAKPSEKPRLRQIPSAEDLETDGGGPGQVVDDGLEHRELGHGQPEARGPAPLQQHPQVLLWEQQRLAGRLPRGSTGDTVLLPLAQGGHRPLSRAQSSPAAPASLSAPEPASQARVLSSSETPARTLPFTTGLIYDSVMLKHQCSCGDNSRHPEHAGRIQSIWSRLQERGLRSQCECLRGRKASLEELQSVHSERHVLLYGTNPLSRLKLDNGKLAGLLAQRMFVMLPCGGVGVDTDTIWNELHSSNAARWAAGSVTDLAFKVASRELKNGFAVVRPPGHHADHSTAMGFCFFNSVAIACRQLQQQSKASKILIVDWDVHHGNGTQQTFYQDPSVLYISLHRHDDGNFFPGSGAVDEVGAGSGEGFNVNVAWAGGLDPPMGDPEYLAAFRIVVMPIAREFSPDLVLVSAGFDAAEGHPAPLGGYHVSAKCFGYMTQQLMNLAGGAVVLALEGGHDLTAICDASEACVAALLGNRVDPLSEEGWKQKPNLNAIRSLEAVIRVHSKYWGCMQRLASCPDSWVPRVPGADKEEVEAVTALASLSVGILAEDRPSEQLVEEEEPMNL

[2] = biological target: T2, Histone deacetylase 11 (Homo sapiens, UniProt Q96DB2); test: Inhibition of HDAC11 (unknown origin) preincubated for 10 mins followed by substrate addition by fluorescence based assay
T2 sequence (Q96DB2 whole entry): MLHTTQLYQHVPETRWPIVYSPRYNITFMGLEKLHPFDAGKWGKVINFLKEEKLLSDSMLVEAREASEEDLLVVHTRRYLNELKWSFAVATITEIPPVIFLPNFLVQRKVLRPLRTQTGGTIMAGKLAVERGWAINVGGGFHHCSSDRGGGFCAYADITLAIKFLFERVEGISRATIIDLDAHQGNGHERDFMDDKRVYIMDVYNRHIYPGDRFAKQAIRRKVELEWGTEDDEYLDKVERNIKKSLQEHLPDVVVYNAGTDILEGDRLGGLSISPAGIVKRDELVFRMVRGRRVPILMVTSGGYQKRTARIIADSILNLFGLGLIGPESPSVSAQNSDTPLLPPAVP

[3] = biological target: T3, Protein deacetylase HDAC6 (Homo sapiens) (UniProt Q9UBN7); test: Inhibition of HDAC6 in human RPMI-8226 cells assessed as increase in Ac-alpha-tubulin expression at 0.5 to 2.5 uM incubated for 24 hrs by Western blot analysis; assay type: cell-based; settings: dose 0.5-2.5 µM
T3 sequence (whole entry): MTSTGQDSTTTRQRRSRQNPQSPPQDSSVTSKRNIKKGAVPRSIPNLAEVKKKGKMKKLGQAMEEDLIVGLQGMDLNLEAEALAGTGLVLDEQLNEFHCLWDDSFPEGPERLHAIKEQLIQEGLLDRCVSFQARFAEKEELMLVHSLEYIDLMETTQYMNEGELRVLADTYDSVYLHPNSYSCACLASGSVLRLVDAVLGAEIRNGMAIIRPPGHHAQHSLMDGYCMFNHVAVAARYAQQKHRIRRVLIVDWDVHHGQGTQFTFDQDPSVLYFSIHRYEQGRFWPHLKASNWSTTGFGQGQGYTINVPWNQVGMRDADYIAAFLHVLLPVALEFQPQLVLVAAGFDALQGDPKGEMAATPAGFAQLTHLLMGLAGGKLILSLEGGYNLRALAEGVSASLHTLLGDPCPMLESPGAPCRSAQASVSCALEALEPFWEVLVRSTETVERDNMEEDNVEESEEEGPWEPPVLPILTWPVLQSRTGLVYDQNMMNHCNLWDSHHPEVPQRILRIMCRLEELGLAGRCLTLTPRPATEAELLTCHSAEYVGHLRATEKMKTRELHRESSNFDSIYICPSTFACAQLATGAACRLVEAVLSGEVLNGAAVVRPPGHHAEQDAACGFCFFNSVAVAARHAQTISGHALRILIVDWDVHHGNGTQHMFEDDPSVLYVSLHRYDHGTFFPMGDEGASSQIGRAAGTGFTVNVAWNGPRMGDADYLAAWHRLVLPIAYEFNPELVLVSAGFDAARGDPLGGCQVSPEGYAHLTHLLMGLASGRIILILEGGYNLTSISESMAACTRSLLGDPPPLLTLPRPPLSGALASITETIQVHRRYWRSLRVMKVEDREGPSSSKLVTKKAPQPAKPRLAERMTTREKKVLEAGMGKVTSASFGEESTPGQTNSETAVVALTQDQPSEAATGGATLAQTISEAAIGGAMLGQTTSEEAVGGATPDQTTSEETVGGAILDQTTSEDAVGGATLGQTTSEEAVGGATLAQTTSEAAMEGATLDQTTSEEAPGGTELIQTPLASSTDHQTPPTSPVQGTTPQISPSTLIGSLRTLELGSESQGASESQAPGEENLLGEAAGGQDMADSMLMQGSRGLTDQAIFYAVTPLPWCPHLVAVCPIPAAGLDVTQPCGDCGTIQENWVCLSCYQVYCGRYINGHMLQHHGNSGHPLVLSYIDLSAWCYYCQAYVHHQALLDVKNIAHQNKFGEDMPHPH

[4] = test system: RPMI-8226; test: Induction of apoptosis in human RPMI-8226 cells assessed as increase in APAF-1 expression at 0.1 to 2.5 uM incubated for 24 hrs by Western blot analysis; assay type: functional, cell-based; settings: dose 0.1-2.5 µM
[5] = Volume of distribution at steady state in mouse at 1 mg/kg, iv; assay type: ADME, organism-based; settings: in vivo, read-out: Vdss
[6] = Toxicity in Balb/c nude mouse xenografted with human RPMI-8226 cells assessed as adverse effect on liver at 10 to 40 mg/kg, po qd for 21 days administered consecutively by H and E staining based analysis; assay type: organism-based; settings: in vivo, 504 h, dose 10-40 mg/kg, time 21 day
[7] = Toxicity in Balb/c nude mouse xenografted with human RPMI-8226 cells assessed as adverse effect on lung at 10 to 40 mg/kg, po qd for 21 days administered consecutively by H and E staining based analysis; assay type: organism-based; settings: in vivo, 504 h, dose 10-40 mg/kg, time 21 day
[8] = Toxicity in Balb/c nude mouse xenografted with human RPMI-8226 cells assessed as adverse effect on serum uric acid level at 10 to 40 mg/kg, po qd for 21 days administered consecutively; assay type: organism-based; settings: in vivo, 504 h, dose 10-40 mg/kg, time 21 day

IC50 [1]: 1230 nM
IC50 [2]: 983 nM
inhibition [3]: Active
Vd [5]: 2.29 L/kg
Compound: Cn1c([C@@H](Cc2ccccc2)NCc2ccccc2)nc2cc(C(=O)NO)ccc21
Activity [4]: Active
Activity [6]: Non-Toxic
Activity [7]: Non-Toxic
Activity [8]: Non-Toxic

From ChEMBL document CHEMBL5634123, “Design and synthesis of 1H-benzo[d]imidazole selective HDAC6 inhibitors with potential therapy for multiple myeloma” (Eur J Med Chem, 2023)
